Experimental data as given in publication PMC7556876, “POMK regulates dystroglycan function via LARGE1-mediated elongation of matriglycan” (eLife, 2020).
pKd: −log10 of the molar value.

Target: T1, POMK (Protein O-Mannose Kinase) (Danio rerio, UniProt Q5U3W1)
T1 construct: Purified Danio rerio POMK
Experiment: ligand-observed 1D 1H NMR titration (Man H1 peak intensity)
Assay type: binding

T1 sequence (Q5U3W1 whole entry): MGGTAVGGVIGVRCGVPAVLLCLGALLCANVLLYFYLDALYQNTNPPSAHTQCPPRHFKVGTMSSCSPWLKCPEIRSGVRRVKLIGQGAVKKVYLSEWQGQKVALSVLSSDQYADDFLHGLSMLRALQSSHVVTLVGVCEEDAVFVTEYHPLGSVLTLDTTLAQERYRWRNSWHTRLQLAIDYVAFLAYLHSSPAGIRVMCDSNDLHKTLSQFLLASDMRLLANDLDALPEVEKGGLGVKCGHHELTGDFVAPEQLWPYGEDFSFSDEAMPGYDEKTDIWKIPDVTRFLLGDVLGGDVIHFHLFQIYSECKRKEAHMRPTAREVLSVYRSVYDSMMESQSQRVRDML

**Q.** How did the pKd turn out when `CC(=O)N[C@H]1[C@H](O[C@H]2[C@H](O)[C@@H](CO)O[C@@H](O[C@H]3[C@H](O)[C@H](O)[C@@H](Oc4ccc5c(C)cc(=O)oc5c4)O[C@@H]3COP(=O)(O)O)[C@@H]2NC(C)=O)O[C@H](CO)[C@H](O)[C@@H]1O` [GGMp-MU] was run?
**A.** Its pKd is under 3.30.
